Laboratory results published in ChEMBL document CHEMBL1136667, “Inhibitors of Abeta production: solid-phase synthesis and SAR of alpha-hydroxycarbonyl derivatives” (Bioorg Med Chem Lett, 2003).
pIC50: −log10 of the molar value.

The compounds below were run against Gamma-secretase (assay: Inhibition of amyloid beta protein production in transfected H4 (neuroglioma) cells expressing […] constructs.).
Type: functional, cell-based, Homo sapiens

| pIC50 | SMILES |
| --- | --- |
| 5.35 | CC(C)CCC(=O)N[C@@H](CC(C)C)C(=O)N[C@@H](CC1CCCCC1)[C@@H](O)C(=O)c1ccccc1 |
| 5.80 | CCOC(=O)[C@H](O)[C@H](CC1CCCCC1)NC(=O)[C@H](CC(C)C)NC(=O)Cc1ccccc1 |
| 5.30 | CCOC(=O)[C@H](O)[C@H](CC1CCCCC1)NC(=O)[C@@H](NC(=O)/C=C/c1ccccc1)C(C)C |
| 5.47 | CCOC(=O)[C@H](O)[C@H](CC1CCCCC1)NC(=O)[C@@H](NC(=O)Cc1ccccc1)C(C)C |
| 6.74 | CC(=O)[C@H](O)[C@H](CC1CCCCC1)NC(=O)[C@H](CC(C)C)NC(=O)Cc1cc(F)cc(F)c1 |
| < 4.60 | CCOC(=O)[C@H](O)[C@H](CC1CCCCC1)NC(=O)[C@H](NC(=O)Cc1ccccc1)C(C)C |
| 4.82 | CCOC(=O)[C@H](O)[C@H](CC1CCCCC1)NC(=O)[C@H](Cc1ccccc1)NC(=O)Cc1ccccc1 |
| 6.21 | CC(=O)[C@H](O)[C@H](CC1CCCCC1)NC(=O)[C@H](CC(C)C)NC(=O)CCC(C)C |
| 6.80 | CC(C)C[C@H](NC(=O)Cc1cc(F)cc(F)c1)C(=O)N[C@@H](CC1CCCCC1)[C@@H](O)C(=O)Cc1ccccc1 |
| 6.35 | CCOC(=O)[C@H](O)[C@H](CC1CCCCC1)NC(=O)[C@H](CC(C)C)NC(=O)Cc1cc(F)cc(F)c1 |
| 4.77 | CCOC(=O)[C@H](O)[C@H](CC1CCCCC1)NC(=O)[C@@H](NC(=O)Cc1ccccc1F)C(C)C |
| 6.52 | CC(C)CCC(=O)N[C@@H](CC(C)C)C(=O)N[C@@H](CC1CCCCC1)[C@@H](O)C(=O)Cc1ccccc1 |
| 5.48 | CCOC(=O)[C@H](O)[C@H](CC1CCCCC1)NC(=O)[C@@H](NC(=O)C(=O)c1ccccc1)C(C)C |
| 6.24 | CCCC(=O)[C@H](O)[C@H](CC1CCCCC1)NC(=O)[C@H](CC(C)C)NC(=O)CCC(C)C |
| 6.05 | CC(=O)[C@H](O)[C@H](CC1CCCCC1)NC(=O)[C@H](CC(C)C)NC(=O)Cc1ccccc1 |
| < 4.60 | CCOC(=O)[C@H](O)[C@H](CC1CCCCC1)NC(=O)[C@@H](NC(=O)c1ccccc1)C(C)C |
| 5.82 | CCOC(=O)[C@H](O)[C@H](CC1CCCCC1)NC(=O)[C@H](CC(C)C)NC(=O)CCC(C)C |
| 6.40 | CC(C)C[C@H](NC(=O)Cc1ccccc1)C(=O)N[C@@H](CC1CCCCC1)[C@@H](O)C(=O)Cc1ccccc1 |
| 6.40 | CC(C)C[C@H](NC(=O)Cc1cccc(F)c1)C(=O)N[C@@H](CC1CCCCC1)[C@@H](O)C(=O)Cc1ccccc1 |
| 6.26 | CC(C)CCC(=O)N[C@@H](CC(C)C)C(=O)N[C@@H](CC1CCCCC1)[C@@H](O)C(=O)C(C)C |
| 5.74 | CCOC(=O)[C@H](O)[C@H](CC1CCCCC1)NC(=O)[C@H](CC(C)C)NC(=O)Cc1ccc(F)cc1 |
| 6.05 | CC(C)C[C@H](NC(=O)Cc1ccccc1)C(=O)N[C@@H](CC1CCCCC1)[C@@H](O)C(=O)c1ccccc1 |
| 6.22 | CCCC(=O)[C@H](O)[C@H](CC1CCCCC1)NC(=O)[C@H](CC(C)C)NC(=O)Cc1ccccc1 |
| 6.04 | CCOC(=O)[C@H](O)[C@H](CC1CCCCC1)NC(=O)[C@H](CC(C)C)NC(=O)Cc1cccc(F)c1 |
| < 4.60 | CCOC(=O)[C@H](O)[C@H](CC1CCCCC1)NC(=O)[C@@H](NC(=O)C1(c2ccccc2)CC1)C(C)C |
| 4.82 | CC(C)C[C@H](NC(=O)Cc1ccccc1)C(=O)N[C@@H](CC1CCCCC1)[C@@H](O)C(=O)O |
